Results from patent US20100184684A1, “ANTIBACTERIAL AND ANTIFUNGAL PEPTIDES” (C3 JIAN, INC., priority 2009, published 2010).
In brackets after ≈: the same amount, converted by molar mass. Like-named read-outs stand apart in the source and are kept apart here. Ends that are not written are not given here. Peptide text beside a SMILES is read from it.

Legend:
MRSA = assay type: cell-based, Staphylococcus aureus; conditions: MRSA; BHI supplemented with 2% glucose, 37° C., aerobic, 10^5 CFU/ml
Protocol: (§1) In certain embodiments the MIC assays are performed as described herein in the Examples. For each organism, the media and growth conditions utilized is detailed in Table 8.
(§2) In certain embodiments the MIC assays are performed as follows: For each organism, the media and growth conditions utilized is detailed in Table 8.

B. subtilis = assay type: cell-based, Bacillus subtilis
Protocol: as §1, §2

A. baumannii = assay type: cell-based, Acinetobacter baumannii
Protocol: as §1, §2

S. mutans = assay type: cell-based, Streptococcus mutans
Protocol: as §1, §2

A. niger = assay type: cell-based, Aspergillus niger
Protocol: as §1, §2

S. epidermidis = assay type: cell-based
Protocol: as §1, §2

C. jeikeium = assay type: cell-based, Corynebacterium jeikium
Protocol: as §1, §2

T. rubrum = assay type: cell-based, Trichophyton rubrum
Protocol: as §1, §2

P. aeruginosa = assay type: cell-based, Pseudomonas aeruginosa
Protocol: as §1, §2

C. difficile = assay type: cell-based, Clostridium difficile
Protocol: as §1, §2

A. naeslundii = assay type: cell-based, Actinomyces naeslundii
Protocol: as §1, §2

F. nucleatum = assay type: cell-based, Fusobacterium nucleatum
Protocol: as §1, §2

P. gingivalis = assay type: cell-based, Porphyromonas gingivalis
Protocol: as §1, §2

M. furfur = assay: MIC assay; assay type: cell-based, Malassezia furfur; conditions: ATCC medium 1072, 37° C., aerobic, 10^5 CFU/ml
Protocol: as §1, §2

E. coli = assay type: cell-based, Escherichia coli
Protocol: as §1, §2

S. pneumoniae = assay type: cell-based, Streptococcus pneumoniae
Protocol: as §1, §2

For CC[C@H](C)[C@H](NC(=O)CNC(=O)[C@@H](N)CCSC)C(=O)N[C@H](C(=O)N[C@@H](C)C(=O)NCC(=O)N[C@H](C(=O)N[C@H](C(=O)N[C@@H](CCCCN)C(=O)N[C@@H](Cc1ccccc1)C(=O)N[C@H](C(=O)N[C@@H](CCCCN)C(=O)NCC(=O)N[C@@H](CC(C)C)C(=O)N[C@H](C(=O)N[C@@H](CCC(=O)O)C(=O)N[C@@H](CCCCN)C(=O)N[C@@H](Cc1ccccc1)C(=O)N[C@H](C(=O)NCC(=O)N[C@@H](CCCCN)C(=O)O)[C@@H](C)O)[C@@H](C)CC)[C@@H](C)CC)[C@@H](C)CC)[C@@H](C)CC)[C@@H](C)CC [PF-006], the MIC (MRSA) was 50 µM (≈ 114 µg/mL), the MIC (B. subtilis; B. subtilis, BHI, 30° C., aerobic, 10^5 CFU/ml) was 25 µM (≈ 56.9 µg/mL) and the MIC (A. baumannii; A. baumannii, LB, 30° C., anaerobic, 10^5 CFU/ml) was 50 µM (≈ 114 µg/mL).

Compound CC[C@H](C)[C@H](NC(=O)[C@H](CCCCN)NC(=O)[C@@H](NC(=O)[C@H](CCCCN)NC(=O)[C@H](CCCCN)NC(=O)[C@@H](NC(=O)[C@H](CCCCN)NC(=O)[C@@H]1CCCN1C(=O)[C@H](CCCNC(=N)N)NC(=O)[C@@H]1CCCN1C(=O)[C@H](CCC(N)=O)NC(=O)[C@H](CCC(N)=O)NC(=O)[C@H](CC(N)=O)NC(=O)[C@H](CC(C)C)NC(=O)[C@H](Cc1c[nH]cn1)NC(=O)[C@H](Cc1ccccc1)NC(=O)[C@H](CCC(N)=O)NC(=O)[C@@H](NC(=O)[C@@H](N)Cc1ccc(O)cc1)[C@@H](C)CC)C(C)C)[C@@H](C)CC)C(=O)N[C@@H](Cc1ccccc1)C(=O)N[C@@H](CC(C)C)C(=O)O [PF-531] (H-YIQFHLNQQPRPKVKKIKIFL-OH; N-terminus and C-terminus assumed) has an MIC (S. mutans) of 12.5 µM (≈ 33 µg/mL), an MIC (A. niger) of 25 µM (≈ 66 µg/mL) and an MIC (S. epidermidis) of 50 µM (≈ 132 µg/mL). It also gave an MIC (C. jeikeium) of 6.25 µM (≈ 16.5 µg/mL), an MIC (T. rubrum) of 50 µM (≈ 132 µg/mL) and an MIC (P. aeruginosa) of 50 µM (≈ 132 µg/mL). For the same compound, the MIC (B. subtilis) was 25 µM (≈ 66 µg/mL), the MIC (C. difficile) was 12.5 µM (≈ 33 µg/mL) and the MIC (A. baumannii) was 25 µM (≈ 66 µg/mL).

CC[C@H](C)[C@H](NC(=O)[C@H](CCC(N)=O)NC(=O)[C@H](CCCCN)NC(=O)[C@H](CC(C)C)NC(=O)[C@H](CC(C)C)NC(=O)[C@@H]1CCCN1C(=O)[C@H](CCSC)NC(=O)[C@H](CC(C)C)NC(=O)[C@H](CO)NC(=O)[C@H](CCCCN)NC(=O)CNC(=O)[C@@H](N)CCCCN)C(=O)N[C@@H](CC(N)=O)C(=O)N[C@@H](CCC(N)=O)C(=O)N[C@@H](Cc1c[nH]c2ccccc12)C(=O)NCC(=O)N[C@@H](CCCCN)C(=O)N[C@@H](CC(C)C)C(=O)N[C@@H](Cc1ccc(O)cc1)C(=O)N[C@@H](CC(C)C)C(=O)O [PF-C239] (H-KGKSLMPLLKQINQWGKLYL-OH; N-terminus and C-terminus assumed) was tested, and the MIC (S. mutans) was 50 µM (≈ 118 µg/mL), the MIC (A. naeslundii) was 25 µM (≈ 59 µg/mL) and the MIC (F. nucleatum) was 50 µM (≈ 118 µg/mL). For the same compound, the MIC (P. gingivalis) was 50 µM (≈ 118 µg/mL).

Work on CC[C@H](C)[C@H](NC(=O)[C@@H](NC(=O)[C@H](CO)NC(=O)CN)C(C)C)C(=O)N[C@@H](CCCCN)C(=O)N[C@@H](CCCCN)C(=O)N[C@@H](CCCNC(=N)N)C(=O)N[C@@H](CCCNC(=N)N)C(=O)N[C@@H](CCCCN)C(=O)N[C@@H](CCCNC(=N)N)C(=O)N[C@@H](CCSC)C(=O)N[C@@H](CO)C(=O)N[C@@H](CCCCN)C(=O)N[C@@H](CCCCN)C(=O)N[C@@H](CCCCN)C(=O)N[C@@H](Cc1c[nH]cn1)C(=O)N[C@@H](CCCNC(=N)N)C(=O)N[C@@H](CCCCN)C(=O)N[C@@H](CCSC)C(=O)N[C@@H](CC(C)C)C(=O)N[C@@H](CCCNC(=N)N)C(=O)N[C@@H](CCCNC(=N)N)C(=O)N[C@H](C(=O)N[C@@H](CCCNC(=N)N)C(=O)N[C@H](C(=O)N[C@@H](CCC(N)=O)C(=O)N[C@@H](CCCNC(=N)N)C(=O)N[C@@H](CCCNC(=N)N)C(=O)N[C@@H](CCCCN)C(=O)N[C@@H](CC(C)C)C(=O)NCC(=O)N[C@@H](CCCCN)C(=O)O)C(C)C)[C@@H](C)O [PF-S028] yielded an MIC (S. mutans; S. mutans, TH supplemented with 1% sucrose, 37° C., anaerobic, 10^5 CFU/ml) of 50 µM (≈ 202 µg/mL), an MIC (MRSA) of 50 µM (≈ 202 µg/mL) and an MIC (M. furfur) of 2.5 µM (≈ 10.1 µg/mL). For the same compound, the MIC (S. epidermidis; S. epidermidis, BHI supplemented with 0.25% glucose, 37° C., aerobic, 10^5 CFU/ml) was 25 µM (≈ 101 µg/mL), the MIC (T. rubrum; T. rubrum, Potato Dextrose Agar, 25° C., aerobic, 10^5 CFU/ml) was 50 µM (≈ 202 µg/mL) and the MIC (P. aeruginosa; P. aeruginosa, MH, 37° C., aerobic, 10^5 CFU/ml) was 50 µM (≈ 202 µg/mL). For the same compound, the MIC (P. gingivalis; P. gingivalis, Columbia broth, 37° C., anaerobic, 10^5 CFU/ml) was 25 µM (≈ 101 µg/mL).

“MPVSKKRYMLSSAYATALGICYGQVATDEKESEITAIPDLLDYLSVEEYLL [PF-C163]” gave an MIC (S. epidermidis) of 50 µM, an MIC (A. naeslundii) of 50 µM and an MIC (P. gingivalis) of 50 µM.

“TKKIELKRFVDAFVKKSYENYILERELKKLIKAINEELPTK [PF-600]” gave an MIC (E. coli) of 50 µM and an MIC (S. pneumoniae) of 50 µM.
